Entries after “also recorded” stand apart in the source; their conditions may differ. Where two headings read alike, the source gives them in different places.
Columns and labels:
rat PPARα = biological target: T1, rat PPARα (Rattus norvegicus, UniProt P37230); assay: GAL4-PPAR chimera transactivation assay in CV-1 cells at 10% or 0.1% serum (Example 4); type: cell-based; settings: read-out: GAL4-chimera (rat) EC50 (μM) hPPARα
T1 construct: expressed in transfected cells; host or cells: CV-1
T1 sequence (P37230 239-466 limits assumed): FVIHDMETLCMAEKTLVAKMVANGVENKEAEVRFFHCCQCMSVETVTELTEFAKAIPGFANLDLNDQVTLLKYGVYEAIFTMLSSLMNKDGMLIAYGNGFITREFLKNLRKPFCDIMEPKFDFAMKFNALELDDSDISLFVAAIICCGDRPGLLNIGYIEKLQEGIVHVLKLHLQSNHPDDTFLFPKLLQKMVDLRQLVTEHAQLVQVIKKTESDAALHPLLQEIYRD

[1] = Oral glucose tolerance test after 3 weeks of treatment in WD fed rats; type: in vivo, rat; settings: 6 h fasted, oral glucose 2.5 g/kg after 3 weeks
rat PPARγ = biological target: T2, rat PPARγ (Rattus norvegicus, UniProt O88275); assay: GAL4-PPAR chimera transactivation assay in CV-1 cells at 10% or 0.1% serum (Example 4); type: cell-based; settings: read-out: GAL4-chimera (rat) EC50 (μM) hPPARγ
T2 construct: expressed in transfected cells; host or cells: CV-1
T2 sequence (O88275 238-503 limits assumed): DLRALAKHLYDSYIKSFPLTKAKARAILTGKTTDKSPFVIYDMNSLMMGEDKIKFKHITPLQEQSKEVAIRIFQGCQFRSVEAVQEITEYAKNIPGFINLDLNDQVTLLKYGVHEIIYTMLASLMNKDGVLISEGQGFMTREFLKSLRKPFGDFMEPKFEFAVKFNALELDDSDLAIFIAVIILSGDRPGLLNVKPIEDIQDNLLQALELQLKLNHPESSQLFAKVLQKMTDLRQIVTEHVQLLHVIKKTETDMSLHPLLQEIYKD

[2] = Triglycerides content in the liver after 5 weeks of treatment in WD fed rats (enzymatic-colorimetric method); type: in vivo, rat; settings: pioglitazone 10, GW501516 10, compound I.1 at any used dose
Procedure: At the end of the clamp procedure (9.5 hours fasting), perirenal, retroperitoneal, epididymal and inguinal fat pads and liver weights were recorded. Blood was collected from cardiac puncture and plasmas were stored at −80° C. for further assays if needed (depending on the radioactive state of samples). Liver triglyceride content was assessed (enzymatic-colorimetric method) as well as liver and adipose tissue TNF-α content (ELISA method).

[3] = Euglycemic-hyperinsulinemic 2 steps clamp with 3H-glucose after 5 weeks of treatment in WD fed rats; type: in vivo, rat
Procedure: After 4 weeks of treatment, a catheter was implanted into the femoral vein under isoflurane anaesthesia and a period of 5-6 days was respected for recovery. […] The morning of the clamp procedure, rats were treated and fasted for 6 hours prior to tracer, glucose and insulin infusions. The beginning of the clamp procedure was performed in the middle of the dark cycle.
The euglycemic hyperinsulinemic 2 steps insulin clamp was performed using 0.2 U/kg/h and 0.8 U/kg/h insulin infusion associated with 3H-glucose infusion. We then assessed:
During the clamp procedure, a bolus (30 μCi) of D-[3-3H]glucose was first injected followed by 4 μCi/min/kg infusion rate during all the experiment to ensure a detectable plasma D[3-3H]glucose enrichment. A bolus of insulin (100 mU) was first injected, and insulin was then infused at a rate of 0.2 U/kg/h for the first 2 hours and 0.8 U/kg/h from 120 minutes to 210 minutes.
Throughout the infusion, glycaemia was assessed with a blood glucose meter from the tip of the tail vein when needed. Euglycemia was maintained by periodically (every 10 minutes) adjusting a variable infusion of 30% glucose. Plasma glucose concentrations and D-[3-3H]glucose specific activity were determined during stable phase in 10 μl of blood sampled from the tip of the tail vein every 20 minutes from 60 to 120 minutes during the first step and from 150 to 210 minutes during the second step.
For glucose turnover measurements, D-[3-3H]glucose enrichments were determined from total blood after deproteinization by a Zn(OH)2 precipitate. Briefly, an aliquot of the supernatant was evaporated to dryness to determine the radioactivity corresponding to D-3-3H. In a second aliquot of the same supernatant, glucose concentration was assessed by the glucose oxidase method (Biomérieux, France).
Calculations for glucose turnover measurements were made from parameters obtained during the infusions in steady-state condition ([…]). Briefly, the D-[3-3H]glucose specific activity was calculated by dividing the D-[3-3H]glucose enrichment by the plasma glucose concentration. The whole body glucose turnover rate was calculated by dividing the rate of D[3-3H]glucose by the D-[3-3H]glucose plasma specific activity. For each rat, the mean values were calculated and averaged with values from rats of the same group. The whole body glycolysis rate was measured by assessing the amount of tritiated water accumulated in the blood during the 3H-glucose infusion and the whole body glycogen synthesis rate was calculated by the difference between the whole body glucose turnover and the whole body glycolysis rate.

rat PPARδ = biological target: T3, rat PPARδ (Rattus norvegicus, UniProt Q62879); assay: GAL4-PPAR chimera transactivation assay in CV-1 cells at 10% or 0.1% serum (Example 4); type: cell-based; settings: read-out: GAL4-chimera (rat) EC50 (μM) hPPARδ
T3 construct: expressed in transfected cells; host or cells: CV-1
T3 sequence (Q62879 139-440 limits assumed): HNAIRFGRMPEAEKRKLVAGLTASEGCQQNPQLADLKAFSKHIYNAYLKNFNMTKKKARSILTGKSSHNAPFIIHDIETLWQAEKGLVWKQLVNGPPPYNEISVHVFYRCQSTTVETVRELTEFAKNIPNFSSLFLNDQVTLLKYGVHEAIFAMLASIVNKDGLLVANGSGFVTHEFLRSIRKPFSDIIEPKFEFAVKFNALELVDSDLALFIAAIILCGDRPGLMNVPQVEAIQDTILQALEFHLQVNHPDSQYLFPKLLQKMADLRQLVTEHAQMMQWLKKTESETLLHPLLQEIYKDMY
Procedure: Assays were performed in triplicate for GAL4-chimeras. Experiments were repeated at least three times.
The EC50 were calculated as previously described.
The transactivation activities of the compound I.1 and GW501516 are measured in rat and mouse transactivation assays at 10% and 0.1% serum (Tables 11 and 12).

In the case of Cc1cc(C(=O)CCc2sc(-c3ccc(C(F)(F)F)cc3)nc2C(C)C)ccc1OCC(=O)O [compound I.1, 4-[3-[4-Isopropyl-2-[4-(trifluoromethyl)phenyl]-5-thiazolyl]propionyl]-2-methylphenoxyacetic acid], the EC50 (rat PPARα; 0.1% serum) is reported as over 10 µM, the EC50 (rat PPARα; 10% serum) is reported as over 10 µM and the “Glucose tolerance (OGTT, AUC, glycemia variation)” value ([1]; compound I.1 3 mg/kg) is reported as “slight tendency to improve glucose tolerance”. For the same molecule, the “Glucose tolerance (OGTT, AUC, glycemia variation)” value ([1]; pioglitazone 10, metformin 50, GW501516 10, compound I.1 10 mg/kg) was “significantly improved glucose tolerance”, the EC50 (rat PPARγ; 0.1% serum) was over 10 µM and the EC50 (rat PPARγ; 10% serum) was over 10 µM. For the same molecule, the “Triglycerides content in the liver” value [2] was “did not affect; also recorded: did not significantly decrease”, the “Insulin resistance / insulin sensitizing effect (overall)” value ([3]; WD fed rats, after 5 weeks, compound I.1 dose not specified (3 and 10 mg/kg groups), pioglitazone 10, metformin 50 mg/kg) was “improved insulin resistance in a lesser extent than pioglitazone and metformin, but was more effective than GW501516; also recorded: insulin sensitizing effect, less marked than metformin” and the “Whole body glucose oxidation” value ([3]; WD fed rats, clamp after 5 weeks, metformin 50 mg/kg, compound I.1 dose not specified, alone or associated) was “tended to increase”. The “Increase of GIR (glucose infusion rate) during the first step” value ([3]; clamp 0.2 U/kg/h insulin, after 5 weeks, compound I.1 3 mg/kg) was 105%, the “Decrease of HGP (hepatic glucose production)” value ([3]; clamp 0.2 U/kg/h insulin, compound I.1 3 mg/kg) was 22% and the Increase of glycolysis ([3]; clamp 0.8 U/kg/h insulin, metformin 50, GW501516 10, compound I.1 10 mg/kg (alone or +metformin 50 mg/kg)) was 42%. For the same molecule, the EC50 (rat PPARδ; 0.1% serum) was 0.118 ± 0.031 µM and the EC50 (rat PPARδ; 10% serum) was 0.692 ± 0.177 µM.

— patent publication US20110092517A1, “Use of PPAR Delta Ligands for the Treatment or Prevention of Inflammation or Energy Metabolism/Production Related Diseases” (Cerenis Therapeutics S.A. & Nippon Chemiphar Co., Ltd., priority 2009, published 2011)
